The structures appear in SMILES notation. Like-named read-outs stand apart in the source and are kept apart here.

The subject of series [1] is HCT116 (Colon carcinoma). The series can be described thus: FMCA cytotoxicity, HCT116. Format: cell-based, human. The note with it: 72 h. Here is the method: (§1) The inventors also set out to characterize activity of the compounds A, B and C in cell lines representing cancer of different origin. The specific assays used and the conclusions from the mechanistic evaluation have previously been described in detail (Zhang et al. 2014). Compounds A, B and C (See FIG. 4) were evaluated for cytotoxicity expressed as survival index (SI) in six human tumor cell lines using the cell based fluorometric micro culture cytotoxicity assay (FMCA) as previously described in detail (Lindhagen et al, 2008). The method is based on measurement of fluorescent fluorescein, generated from hydrolysis of FDA by viable cells with intact plasma membrane. The fluorescence is proportional to the number of intact viable cells.
(§2) The cell lines were cultivated in the respective cell medium recommended by the provider. The medium was supplemented with 10% heat-inactivated fetal bovine serum, 2 mmol/L L-glutamine, 100 μg/mL streptomycin and 100 U/mL penicillin (all from Sigma-Aldrich). The cell line was cultured at 37° C. in a humidified atmosphere containing 5% CO2.
(§3) FMCA analysis in brief, 2500 cells per well were seeded into 384-well microplates and incubated over night before treatment with compounds. Compounds were added using acoustic liquid transfer (Echo 550, LabCyte). The plates were incubated at 37° C. for 72 h, and then washed and FDA was added to the wells followed by 50 min of incubation at 37° C. The fluorescence, which is proportional to the number of living cells in each well, was measured at 485/520 nm in a Fluoroskan instrument (Labsystems, GMI, Ramsey, Minn.). Cell survival is presented as Survival Index (SI), defined as the fluorescence value in the compound-treated wells analysed as percentage of the value in the control wells, with blank values subtracted. Quality criteria included a signal/blank ratio >10 and a coefficient of variation (CV) in control and blank wells <30%. Graph Pad Prism (San Diego, Calif., USA). All experiments were performed twice, and each concentration was evaluated in quadruplicates in each experiment. […]

The test system of series [2] is RKO (Colon carcinoma). The series can be described thus: FMCA cytotoxicity, RKO. Format: cell-based, human. The note with it: 72 h. Here is the method:
as §1, §2, §3

Series [3] deals with HeLa (Cervix Adenocarcinoma). The series can be described thus: FMCA cytotoxicity, HeLa. Format: cell-based, human. The settings on record: 72 h. Here is the method: as §1, §2, §3
Series [4] relates to HepG2 (Hepatocellular Carcinoma). Description: FMCA cytotoxicity, HepG2. Format: cell-based, human. The note with it: 72 h. As to the method:
as §1, §2, §3

In series [5] the test system is CCRF-CEM (Acute lymphoblastic leukemia). Description: FMCA cytotoxicity, CCRF-CEM. The settings on record: 72 h. Type of series: cell-based, human. Here is the method:
as §1, §2, §3

Series [6] relates to THP-1 (Acute Monocytic Leukemia). Description: FMCA cytotoxicity, THP-1. Type of series: cell-based, human. The settings on record: 72 h. As to the method:
as §1, §2, §3

Series [7] relates to primary human tumor cell cultures, Appendix. The settings on record: 4 patients analyzed, 72 h. As to the method: (§4) Cells were seeded in the drug-prepared 384-well plates using the pipetting robot Precision 2000 (Bio-Tek Instruments Inc., Winooski, Vt.).
Series [8] concerns primary human tumor cell cultures, Colorectal cancer. The note with it: 25 patients analyzed, 72 h. As to the method:
as §4

Series [9] has as its system primary human tumor cell cultures, Gastric. The settings on record: 9 patients analyzed, 72 h. Here is the method: as §4
Series [10] deals with primary human tumor cell cultures, Mesothelioma. The settings on record: 7 patients analyzed, 72 h. Here is the method:
as §4

Series [11] deals with primary human tumor cell cultures, Ovarian. The settings on record: 30 patients analyzed, 72 h. As to the method: as §4
Series [12] relates to primary human tumor cell cultures, PMP (Pseudomyxoma Peritonei). The note with it: 50 patients analyzed, 72 h. As to the method: as §4
In series [13] the test system is primary human tumor cell cultures, Pancreas. The settings on record: 1 patient analyzed, 72 h. Here is the method:
as §4

In series [14] the test system is primary human tumor cell cultures, Renal. The note with it: 13 patients analyzed, 72 h. As to the method:
as §4

Series [15] concerns primary human tumor cell cultures, Small bowel. The settings on record: 1 patient analyzed, 72 h. Here is the method:
as §4

Series [16] concerns various cell lines (CCRF-CEM, RPMI-8226, A2780, FaDu, HT29, MCF7, HL-60) and primary human tumor cell cultures. The settings on record: FIG. 3. Here is the method: as §4
Series [17] has as its system six human tumor cell lines. Description: FMCA cytotoxicity, six human tumor cell lines (overall). Type of series: cell-based. The settings on record: Table 6 and FIG. 4. As to the method: as §1, §2, §3
Setting [18] is: same sample re-analysed after 2 days.

As to `C/C(=N\Nc1nnc2c(n1)[nH]c1c(C)cccc12)c1ccccn1` [Compound A, 2-[(1E,Z)-1-(2-{6-methyl-5H-[1,2,4]triazino[5,6-b]indole-3-yl}hydrazine-1-ylidene)ethyl]-pyridine], the IC50 is roughly 1 µM in series [1]; less than 0.25 µM in series [2]; roughly 20 µM in series [3]; less than 0.25 µM in series [4]; less than 0.25 µM in [5]; less than 0.25 µM in [6]. In addition, the IC50 worked out at 21 µM in series [7]; 11 µM in series [8]; 6.9 µM in series [9]; 12 µM in series [10]; 5.7 µM in [11]; 9.4 µM in series [12]. The half-maximal inhibitory concentration (IC50) in series [13] was 6 µM; in series [14], 164 µM; in [15] it was 5.4 µM. In series [16], the anti-cancer activity entry is listed as “broad anti-cancer activity”. Besides, the “activity on cancer cell lines” value in [17] was “strong activity”. The compound also gave a Z-isomer content under setting [18] of roughly 2% and a Z-isomer content (sample preparation in 0.1% TFA/H2O, first analysis) of roughly 7%. Besides, under setting [18], the hydrolysis detected was roughly 1%.

For the origin of these results see patent US10668056B2, “Pharmaceutical composition comprising indole derivatives, process for preparation and use thereof” (VIVOLUX AB, priority 2015, dated 2020).
